Reference: ChEMBL document CHEMBL6092184, “Talauromides A-G, Nitrogen-Containing Heptacyclic Oligophenalenone Dimers from the Soil Fungus Talaromyces stipitatus BMC-16” (2024)
Active and inactive are the calls of the source. The rule behind the calls is not given here.

Columns and labels:
[1] = In-vivo inhibition of BIO-induced Wnt/beta-catenin signaling pathway in zebrafish embryo assessed as reversal of eyeless phenotype to small and normal like eyes at 20 uM measured at 48 hrs post fertilization; assay type: functional; details: Danio rerio
[2] = tested on: HEK293T; assay: Inhibition of Wnt/beta-catenin signaling pathway in HEK293T cells assessed as downregulation of BIO-induced nonphosphorylated beta-catenin level at 20 uM incubated for 12 hrs by immunoblotting analysis; assay type: cell-based; details: Homo sapiens

| Compound | inhibition in vivo at 20 µM [1] | inhibition [2] |
| --- | --- | --- |
| CC(=O)O[C@H]1[C@@H]2C(=O)c3c(C)cc(O)c4c3[C@@]1(COC4=O)c1c(O)c3c4c(c(O)cc(C)c4c12)C(=O)O3 | 80% | Active |
| Cc1cc(O)c2c3c1C(=O)[C@@H]1C4=C(C(=O)c5cn(CCCC(=O)O)c(=O)c6c(O)cc(C)c4c56)[C@@]3(COC2=O)[C@H]1O | 96.6% | Active |
| CC(=O)O[C@H]1[C@@H]2C(=O)c3c(C)cc(O)c4c3[C@@]1(COC4=O)c1c(O)c3c4c(c(O)cc(C)c4c12)C(=O)OC3 | 100% | Active |
